Measurements taken from patent US5484940A, “Substituted 3-indolyl-5-pyrazolone compounds” (priority 1994, dated 1996).

Target: T1, 5-lipoxygenase (Rattus norvegicus, UniProt P12527)
T1 construct: crude 5-lipoxygenase enzyme from rat basophilic leukemia cells (RBL-1); endogenous in cells; host or cells: RBL-1 (rat basophilic leukemia cells), crude enzyme
T1 sequence (P12527 1-673): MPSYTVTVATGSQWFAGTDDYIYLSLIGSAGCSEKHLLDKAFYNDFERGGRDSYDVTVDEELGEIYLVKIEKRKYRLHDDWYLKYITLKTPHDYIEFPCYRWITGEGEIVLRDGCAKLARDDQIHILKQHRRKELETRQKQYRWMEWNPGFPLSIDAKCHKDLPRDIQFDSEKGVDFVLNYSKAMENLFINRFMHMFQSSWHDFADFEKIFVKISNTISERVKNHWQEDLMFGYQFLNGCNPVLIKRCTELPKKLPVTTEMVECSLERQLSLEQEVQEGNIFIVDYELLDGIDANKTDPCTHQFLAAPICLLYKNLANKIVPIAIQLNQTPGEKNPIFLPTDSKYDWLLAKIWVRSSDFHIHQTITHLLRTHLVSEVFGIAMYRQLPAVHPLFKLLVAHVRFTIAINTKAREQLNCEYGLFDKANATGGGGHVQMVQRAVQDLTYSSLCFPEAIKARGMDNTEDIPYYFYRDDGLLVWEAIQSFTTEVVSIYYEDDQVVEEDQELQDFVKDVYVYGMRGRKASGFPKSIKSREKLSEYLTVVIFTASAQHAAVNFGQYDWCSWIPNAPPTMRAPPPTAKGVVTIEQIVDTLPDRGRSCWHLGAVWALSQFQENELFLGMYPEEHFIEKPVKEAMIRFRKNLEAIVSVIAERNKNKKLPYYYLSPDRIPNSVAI
Assay: 5-Lipoxygenase inhibition (5-HETE radioimmunoassay)
Format: biochemical
Details: 6 μM compound; crude enzyme from RBL-1 cells; read-out: Percent Inhibition (5-lipoxygenase)
Experimental: 5-Lipoxygenase catalyzes the oxidative metabolism of arachidonic acid to 5-hydroperoxyeicosatetraenoid acid ([…]), the initial reaction leading to the formation of the leukotrienes^18. Accordingly, compounds inhibiting 5-lipoxygenase activity are art recognized to have anti-inflammatory properties.
The ability of test compounds to inhibit 5-lipoxygenase activity was determined in assays^19 using crude 5-lipoxygenase enzyme from rat basophilic leukemia cells (RBL-1). Test compounds are pre-incubated with the enzyme for 5 minutes at room temperature and the reaction is initiated by addition of substrate (arachidonic acid). Following an 8 minute incubation at room temperature, the reaction is terminated by addition of citric acid, and levels of 5-HETE determined by 5-HETE radioimmunoassay.

- inhibition at 6 µM: 60%
SMILES: COc1ccc2c(c1)c(CC1=NN(c3cccc(C(F)(F)F)c3)C(=O)C1)c(C)n2C(=O)c1ccc(Cl)cc1 [Example 25, 3-[1-(4-chlorobenzoyl)-5-methoxy-2-methyl-3-indolylmethyl]-1-(3-trifluoromethylphenyl)-5-pyrazolone]
